# Results taken from patent US20220098203A1 (priority 2018, published 2022).
# pIC50: −log10 of the molar value. Read-outs that look alike come from different tables or passages of the source.
# Tests used:
# MAT2A homodimer = target: T1, MAT2A homodimer (Homo sapiens, UniProt P31153); assay: MAT2A biochemical assay (liberated phosphate, PiColorLock Gold); conditions: Table 5a; MAT2A biochemical assay; read-out: Enzyme Inhibition
# T1 construct: inferred from the Ni sepharose purification and imidazole elution; made in house; host or cells: SF9 insect cells, recombinant baculovirus (Bac to Bac, pFASTBAC1)
# How it was run: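 Readout is liberated phosphate (PiColorLock Gold), stoichiometric with SAM production, quantified against a potassium phosphate standard curve. Enzyme: recombinant MAT2A homodimer from Sf9, equilibrated 60 min at 25 °C with compound before 60 min reaction with substrate mix containing 500 μM ATP and 400 μM L-methionine.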
# [1] = test system: SAM in HCT116 MTAP-deleted cells; assay: Cellular assay of target engagement (SAM), LC-MS/MS; assay type: cell-based, human; conditions: 72 h, read-out: Cell 72 h SAM Inhibition (MTAP −/−)
# How it was run: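 Target engagement was read as intracellular SAM, measured by LC-MS/MS with d3-SAM as internal standard in methanol/acetic acid extracts. These came from MTAP-deleted HCT116 colon carcinoma cells exposed to inhibitor for 72 hrs.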
# HCT116 MTAP-/- = assay: Inhibition of cellular proliferation (Cell Titer Glo), HCT116 MTAP-/-; assay type: cell-based, human; conditions: 4 days, read-out: 4 Day Relative Growth Inhibition (MTAP −/−)
# How it was run: (§1)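 After 4 days of compound exposure at 37 °C, starting 24 h after plating, growth of the MTAP-wildtype and MTAP-deleted HCT116 pair was measured as ATP luminescence (CellTiter-Glo). The proliferation index was signal minus no-cell blank, divided by blank-corrected 0.2% DMSO control.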
# HCT116 MTAP+/+ = assay: Inhibition of cellular proliferation (Cell Titer Glo), HCT116 MTAP+/+; assay type: cell-based; conditions: Homo sapiens, HCT-116, 96 h, Table 5a, 4 days, read-out: 4 Day Relative Growth Inhibition (MTAP +/+)
# How it was run: as §1
# [2] = Homo sapiens, HCT-116, Table 5a
# [3] = Homo sapiens, HCT-116, 96 h, Table 5a
# [4] = Table 6, select pairs of compounds
# T1 sequence (P31153 whole entry): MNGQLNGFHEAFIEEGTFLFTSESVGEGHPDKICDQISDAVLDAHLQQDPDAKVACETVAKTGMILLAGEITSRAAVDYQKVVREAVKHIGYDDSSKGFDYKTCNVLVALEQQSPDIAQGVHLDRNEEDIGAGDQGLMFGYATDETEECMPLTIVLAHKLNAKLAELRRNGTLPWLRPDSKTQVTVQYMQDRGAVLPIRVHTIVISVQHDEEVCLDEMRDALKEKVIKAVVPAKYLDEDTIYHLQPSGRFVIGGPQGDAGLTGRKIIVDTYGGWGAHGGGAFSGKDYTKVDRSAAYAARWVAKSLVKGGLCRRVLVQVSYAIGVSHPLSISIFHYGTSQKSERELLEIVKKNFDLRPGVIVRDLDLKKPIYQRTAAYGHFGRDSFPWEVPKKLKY
Compound,pIC50 (MAT2A homodimer),"pIC50 [1, 2]",pIC50 (HCT116 MTAP-/-; [3]),pIC50 (HCT116 MTAP+/+),"pIC50 [1, 4]",pIC50 (HCT116 MTAP-/-; [4])
"Cn1cc2cc(N3Cc4ccc(OCC(F)F)nc4N(c4ccc5[nH]ccc5c4)C3=O)ccc2n1 [Example 169, 7-(2,2-difluoroethoxy)-1-(1H-indol-5-yl)-3-(2-methyl-2H-indazol-5-yl)-3,4-dihydropyrido[2,3-d]pyrimidin-2(1H)-one]",> 7.00,> 7.00,> 7.00,< 6.00,–,–
"Cn1cc2cc(N3Cc4ccc(OCC(F)F)nc4N(c4ccc5scnc5c4)C3=O)ccc2n1 [Example 170, 1-(benzo[d]thiazol-5-yl)-7-(2,2-difluoroethoxy)-3-(2-methyl-2H-indazol-5-yl)-3,4-dihydropyrido[2,3-d]pyrimidin-2(1H)-one]",> 7.00,> 7.00,> 7.00,6.00 to 7.00,–,–
"Cn1cc2cc(N3Cc4ccc(OCC(F)F)nc4N(c4ccc5c(ccn5C)c4)C3=O)ccc2n1 [Example 172, 7-(2,2-difluoroethoxy)-1-(1-methyl-1H-indol-5-yl)-3-(2-methyl-2H-indazol-5-yl)-3,4-dihydropyrido[2,3-d]pyrimidin-2(1H)-one]",> 7.00,> 7.00,> 7.00,6.00 to 7.00,–,–
"Cn1cc2cc(N3Cc4ccc(OCC(F)F)nc4N(c4ccc5ncccc5c4)C3=O)ccc2n1 [Example 175, 7-(2,2-difluoroethoxy)-3-(2-methyl-2H-indazol-5-yl)-1-(quinolin-6-yl)-3,4-dihydropyrido[2,3-d]pyrimidin-2(1H)-one]",> 7.00,> 7.00,6.00 to 7.00,6.00 to 7.00,–,–
"Cn1cc2cc(N3Cc4ccc(OCC(F)F)nc4N(c4ccc5sncc5c4)C3=O)ccc2n1 [Example 176, 1-(benzo[d]isothiazol-5-yl)-7-(2,2-difluoroethoxy)-3-(2-methyl-2H-indazol-5-yl)-3,4-dihydropyrido[2,3-d]pyrimidin-2(1H)-one]",> 7.00,6.00 to 7.00,6.00 to 7.00,< 6.00,–,–
"Cn1cc2cc(N3Cc4ccc(OCC(F)F)nc4N(c4ccc5nscc5c4)C3=O)ccc2n1 [Example 177, 1-(benzo[c]isothiazol-5-yl)-7-(2,2-difluoroethoxy)-3-(2-methyl-2H-indazol-5-yl)-3,4-dihydropyrido[2,3-d]pyrimidin-2(1H)-one]",> 7.00,> 7.00,6.00 to 7.00,< 6.00,–,–
"COC1CC=C(N2C(=O)N(c3ccc4nn(C)cc4c3)Cc3ccc(OCC(F)F)nc32)CC1 (stereo not shown) [Example 178, 7-(2,2-difluoroethoxy)-1-(4-methoxycyclohex-1-en-1-yl)-3-(2-methyl-2H-indazol-5-yl)-3,4-dihydropyrido[2,3-d]pyrimidin-2(1H)-one]",> 7.00,> 7.00,> 7.00,6.00 to 7.00,–,–
"Cn1cc2cc(N3Cc4ccc(OCC(F)F)nc4N(c4ccc5[nH]nnc5c4)C3=O)ccc2n1 [Example 179, 1-(1H-benzo[d][1,2,3]triazol-5-yl)-7-(2,2-difluoroethoxy)-3-(2-methyl-2H-indazol-5-yl)-3,4-dihydropyrido[2,3-d]pyrimidin-2(1H)-one]",> 7.00,< 6.00,< 6.00,< 6.00,–,–
"COc1ccc(N2C(=O)N(c3ccc4nn(C)cc4c3)Cc3ncc(OCC(F)F)nc32)cc1 [Example 180, 7-(2,2-difluoroethoxy)-1-(4-methoxyphenyl)-3-(2-methyl-2H-indazol-5-yl)-3,4-dihydropteridin-2(1H)-one]",> 7.00,> 7.00,> 7.00,6.00 to 7.00,–,–
"[2H]C([2H])([2H])Oc1ccc(N2C(=O)N(c3ccc4nn(C)cc4c3)Cc3ncc(OCC(F)F)nc32)cc1 [Example 181, 7-(2,2-difluoroethoxy)-1-(4-(methoxy-d3)phenyl)-3-(2-methyl-2H-indazol-5-yl)-3,4-dihydropteridin-2(1H)-one]",> 7.00,> 7.00,> 7.00,< 6.00,–,–
"Cn1cc2cc(N3Cc4ncc(OCC(F)F)nc4N(c4ccc(OC(F)F)cc4)C3=O)ccc2n1 [Example 182, 7-(2,2-difluoroethoxy)-1-(4-(difluoromethoxy)phenyl)-3-(2-methyl-2H-indazol-5-yl)-3,4-dihydropteridin-2(1H)-one]",> 7.00,> 7.00,6.00 to 7.00,6.00 to 7.00,–,–
"CCOc1cnc2c(n1)N(c1ccc(OC(F)F)cc1)C(=O)N(c1ccc3nn(C)cc3c1)C2 [Example 183, 1-(4-(difluoromethoxy)phenyl)-7-ethoxy-3-(2-methyl-2H-indazol-5-yl)-3,4-dihydropteridin-2(1H)-one]",> 7.00,> 7.00,6.00 to 7.00,< 6.00,–,–
Cn1cc2cc(N3Cc4cc(F)c(OCC(F)F)nc4N(c4ccc(OC(F)F)cc4)C3=O)ccc2n1 [Example 184],> 7.00,6.00 to 7.00,6.00 to 7.00,< 6.00,–,–
"[2H]C([2H])([2H])Oc1ccc(N2C(=O)N(c3ccc4nn(C)cc4c3)Cc3c(C)cc(OCC(F)F)nc32)cc1 [Example 185, 7-(2,2-difluoroethoxy)-1-(4-methoxy-d3-phenyl)-5-methyl-3-(2-methyl-2H-indazol-5-yl)-3,4-dihydropyrido[2,3-d]pyrimidin-2(1H)-one]",> 7.00,> 7.00,> 7.00,6.00 to 7.00,–,–
"CCOc1cnc2c(n1)N(c1ccc(OC(F)F)cc1)C(=O)N(c1ccc(OC)cc1)C2 [Example 186, 1-(4-(difluoromethoxy)phenyl)-7-ethoxy-3-(4-methoxyphenyl)-3,4-dihydropteridin-2(1H)-one]",> 7.00,6.00 to 7.00,> 7.00,6.00 to 7.00,–,–
"CCOc1cc2c(cn1)CN(c1ccc3nn(C)cc3c1)C(=O)N2c1ccc(OC(F)F)cc1 [Example 187, 1-(4-(difluoromethoxy)phenyl)-7-ethoxy-3-(2-methyl-2H-indazol-5-yl)-3,4-dihydropyrido[4,3-d]pyrimidin-2(1H)-one]",6.00 to 7.00,< 6.00,< 6.00,< 6.00,–,–
"COc1ccc(N2Cc3cnc(NCC(F)F)nc3N(c3ccc(-c4nc[nH]n4)cc3)C2=O)cc1 [Example 188, 1-(4-(1H-1,2,4-triazol-3-yl)phenyl)-7-((2,2-difluoroethyl)amino)-3-(4-methoxyphenyl)-3,4-dihydropyrimido[4,5-d]pyrimidin-2(1H)-one]",> 7.00,6.00 to 7.00,6.00 to 7.00,< 6.00,–,–
"CCNc1ncc2c(n1)N(c1ccc(OC(F)F)cc1)C(=O)N(c1ccc3nn(C)cc3c1)C2 [Example 190, 1-(4-(difluoromethoxy)phenyl)-7-(ethylamino)-3-(2-methyl-2H-indazol-5-yl)-3,4-dihydropyrimido[4,5-d]pyrimidin-2(1H)-one]",> 7.00,6.00 to 7.00,6.00 to 7.00,< 6.00,6.00 to 7.00,6.00 to 7.00
"COc1ccc(N2Cc3cnc(NCC(F)(F)F)nc3N(c3ccc(-c4nc[nH]n4)cc3)C2=O)cc1 [Example 193, 1-(4-(1H-1,2,4-triazol-3-yl)phenyl)-3-(4-methoxyphenyl)-7-((2,2,2-trifluoroethyl)amino)-3,4-dihydropyrimido[4,5-d]pyrimidin-2(1H)-one]",> 7.00,> 7.00,6.00 to 7.00,< 6.00,–,–
"COc1ccc(N2Cc3cnc(NCC(F)(F)F)nc3N(c3ccc(-c4c[nH]cn4)cc3)C2=O)cc1 [Example 196, 1-(4-(1H-imidazol-4-yl)phenyl)-3-(4-methoxyphenyl)-7-((2,2,2-trifluoroethyl)amino)-3,4-dihydropyrimido[4,5-d]pyrimidin-2(1H)-one]",> 7.00,6.00 to 7.00,6.00 to 7.00,< 6.00,–,–
"COc1ccc(N2Cc3cnc(NCC(F)(F)F)nc3N(c3ccc(CO)cc3)C2=O)cc1 [Example 202, 1-(4-(hydroxymethyl)phenyl)-3-(4-methoxyphenyl)-7-((2,2,2-trifluoroethyl)amino)-3,4-dihydropyrimido[4,5-d]pyrimidin-2(1H)-one]",6.00 to 7.00,6.00 to 7.00,6.00 to 7.00,< 6.00,–,–
"COc1ccc(N2Cc3cnc(NCC(F)(F)F)nc3N(c3ccc(CCO)cc3)C2=O)cc1 [Example 206, 1-(4-(2-hydroxyethyl)phenyl)-3-(4-methoxyphenyl)-7-((2,2,2-trifluoroethyl)amino)-3,4-dihydropyrimido[4,5-d]pyrimidin-2(1H)-one]",> 7.00,6.00 to 7.00,6.00 to 7.00,< 6.00,–,–
"O=C1N(c2ccc3c(c2)OCCO3)Cc2cnc(NCC(F)(F)F)nc2N1c1ccc(-c2nc[nH]n2)cc1 [Example 214, 1-(4-(1H-1,2,4-triazol-3-yl)phenyl)-3-(2,3-dihydrobenzo[b][1,4]dioxin-6-yl)-7-((2,2,2-trifluoroethyl)amino)-3,4-dihydropyrimido[4,5-d]pyrimidin-2(1H)-one]",> 7.00,> 7.00,6.00 to 7.00,< 6.00,–,–
